For experiment [1], the system named is AML cell lines (MV4-11 (FLT3-ITD) and Kasumi-1 (KITmut)). Briefly: Apoptosis, AnnexinV and PI flow cytometry. In kind it is cell-based. The note with it: 25 and 50 μM for 48 hours. Here is the method:
(§1) Cells (1×10^6) were washed and passed through a […] filter (BD), then re-suspended in 200 μL binding buffer with or without 5 μL AnnexinV (for apoptosis detection) or CD11b (for maturation detection) antibody (BD Biosciences, Billerica, Mass.). After 15 min. of incubation cells were washed with PBS, re-suspended in 500 μL flow buffer and analyzed on a FACSCalibur cytometer (BD Biosciences). For apoptosis detection, 5 μL propidium iodide (PI) (BD Biosciences) was added to cell before running flow cytometry. Sorting for GFP-positive cells was carried out on BD FACS Aria instrument after filtering and washing cells 2× with ice cold PBS supplemented with 2% calf bovine serum and re-suspending in FACS buffer.
(§2) PRMT5 inhibition by C12 was also effective in promoting apoptosis and differentiation.
Referring to FIG. 36, a flow cytometry analysis of AML cell lines treated with PRMT5 inhibitor and stained for cell surface markers AnnexinV and PI indicates a dose-dependent increase in the percentage of apoptotic and dead cells when compared to DMSO-treated cells. Induction of programmed cell death was stronger in the FLT3-ITD AML cell line MV4-11.
(In flow cytometry, cells or beads pass a laser one at a time.)

The subject of another experiment is MOLM-13. Put plainly: MTS growth inhibition assay. In kind it is cell-based. As to conditions: Homo sapiens; MOLM-13, FLT3-ITD+, 48 h. Here is the method: (§3) Clonogenic assays were set up by plating 1×10^3 cell/mL in semi-solid methylcellulose medium (MethoCult, Stem Cell Technologies). Colonies were counted after 10-14 days using an inverted microscope. Growth inhibition assays were measured using a colorimetric MTS assay: 5×10^4 cells were plated in 100 μL final volume in a 96-well plate in the presence of different concentrations of C12 for 24, 48 and 72 hours at 37° C. Afterwards, 20 μL of the CellTiter 96W AQueous One Solution Reagent, which contains tetrazolium compound [3-(4,5-[…])-5-(3-carboxymethoxyphenyl)-2-(4-sulfophenyl)-2H-tetrazolium, inner salt; MTS] and an electron coupling reagent (phenazine ethosulfate; PES) (Promega, Madison Wis.), was added to each well. Within 1-4 hours of incubation at 37° C., the optical density at 490 and 690 nm was measured. Cell viability was calculated with respect to the control samples and reference background wavelength at 690 nm. At least three independent experiments were performed. Growth curve assays were done by counting live cells using Trypan blue exclusion and inverted microscope for >12 days after plating the cells in 1×10^5 concentrations.
as §2
(§4) Referring to FIGS. 34A and 34B, a colorimetric MTS assay was used to measure the proliferation rate of AML cell lines and primary blasts from patients after 48 hours incubation with a PRMT5 inhibitor compound (HLCL61 or C12). The dose-dependent decrease in absorbance indirectly correlates with the number of metabolically active live cells. The IC50 values represent the concentration of the compound at which 50% cell death was achieved.

In another experiment the test system is OCI-AML3. Put plainly: MTS growth inhibition assay. In kind it is cell-based. The note with it: Homo sapiens, OCI-AML-3; OCI-AML3, NPM1+, 48 h. Here is the method: as §3, §2, §4
The test system of the next experiment is Kasumi-1. Put plainly: MTS growth inhibition assay. In kind it is cell-based. As to conditions: Homo sapiens, Kasumi-1, KIT mutation, read-out: IC50 μM. Here is the method: as §3, §2, §4
(In general: Tetrazolium assays rely on reduction of a dye to a coloured formazan, in cell work by metabolically active cells.)

The subject of another experiment is AML cell lines. Briefly: MTS growth inhibition assay, summary over cell lines. In kind it is cell-based. Here is the method: as §3, with “Growth curve assays were done by counting live cells using Trypan blue exclusion and inverted microscope for >12 days after plating the cells in 1×10^5 concentrations.” left out
Referring to FIGS. 34A and 34B, a colorimetric MTS assay was used to measure the proliferation rate of AML cell lines and primary blasts from patients after 48 hours incubation with a PRMT5 inhibitor compound (HLCL61 or C12). The dose-dependent decrease in absorbance indirectly correlates with the number of metabolically active live cells. […]

The target of a further experiment is T1, recombinant PRMT1 (Rattus norvegicus, UniProt Q63009).
T1 construct: purchased Millipore 14-474
Put plainly: Histone methyltransferase assay, [3H]SAM. In kind it is biochemical. As to the method:
(§5) Histone methylation was performed in the presence of DMSO, and 1-40 μM inhibitor compounds. […] After 1.5 h incubation at 30° C., reaction mixtures were spotted on Whatman P-81 filter paper, washed five times with 10 mL of […] sodium carbonate buffer (pH 9.0) to remove unincorporated [3H]SAM, and methylated peptides were detected by scintillation counting.
(§6) Histone methylation was performed in the presence of DMSO, and 1-40 μM HLCL-32, HLCL-10, HLCL-61 and HLCL-64. […] After a 1.5 h incubation at 30° C. reaction mixtures were spotted on Whatman P-81 filter paper, washed five times with 10 mL of […] sodium carbonate buffer (pH 9.0) to remove unincorporated [^3H]SAM, and methylated peptides were detected by scintillation counting.

The target in experiment [2] is T2, affinity-purified hSWI/SNF associated Fl-PRMT7 (Homo sapiens, UniProt Q9NVM4).
T2 construct: made in house
Put plainly: Histone methyltransferase assay, [3H]SAM. In kind it is biochemical. As to conditions: FIG. 33A. As to the method:
as §5, §6

A further experiment addresses T3, recombinant PRMT4 (Mus musculus, UniProt Q9WVG6).
T3 construct: purchased Millipore 14-575
Put plainly: Histone methyltransferase assay, [3H]SAM. In kind it is biochemical. The note with it: FIG. 33A. As to the method: as §5, §6

The subject of experiment [3] is primary AML patient samples. Put plainly: Differentiation marker CD11b, flow cytometry. As to conditions: 25 μM, compared with vehicle-treated cells. In kind it is cell-based, human. As to the method: as §1, §2
The increase in CD11b expression in AML cells lines followed a dose-dependent manner.

The subject of a further experiment is miR-29b in AML cells. Put plainly: miR-29b levels, qRT-PCR. In kind it is cell-based. Here is the method:
Total RNA was extracted using TriZol reagent (Invitrogen) and subjected to Reverse Transcription using SuperScript III reagents (Invitrogen). Quantitative Real-Time PCR was performed on resulting cDNA using commercially available TaqMan Gene Expression Assay primers and probes, and the 7900HT Fast Real-Time PCR System (Applied Biosystems). Mature microRNA levels were quantified using reverse transcription product made with TaqMan MicroRNA Reverse Transcription Kit (Life Technologies).
The regulatory region of pri-miR-29b was later checked for possible docking of PRMT5 (indirect binding) or H3R8me2 and/or H4R3me2 (direct binding) using ChIP assay with and without PRMT5 inhibition. […] The efficiency of miR-29b in modulating SP1 was confirmed by miR-29b gain- and loss-of function assays in AML cells, and significant suppression of SP1 in miR-29b overexpressing cells was detected, while SP1 was re-expressed when cells were treated with miR-29b knockdown (FIGS. 49A and 49B). […] As a result, SP1 transcription activity may increase, for example, in response to removal of miR-29b inhibitory effects and active SP1 in turn may promote FLT3 expression.
Referring to FIG. 50A-C, a qRT-PCR assay was used to measure transcript levels of pri-miR-29b (isoforms pri-miR-29b-1 and pri-miR-29b-2) in AML cell lines and patient blasts following PRMT5 inhibition. […]

Read-outs that look alike come from different tables or passages of the source.

T1 sequence (Q63009 whole entry): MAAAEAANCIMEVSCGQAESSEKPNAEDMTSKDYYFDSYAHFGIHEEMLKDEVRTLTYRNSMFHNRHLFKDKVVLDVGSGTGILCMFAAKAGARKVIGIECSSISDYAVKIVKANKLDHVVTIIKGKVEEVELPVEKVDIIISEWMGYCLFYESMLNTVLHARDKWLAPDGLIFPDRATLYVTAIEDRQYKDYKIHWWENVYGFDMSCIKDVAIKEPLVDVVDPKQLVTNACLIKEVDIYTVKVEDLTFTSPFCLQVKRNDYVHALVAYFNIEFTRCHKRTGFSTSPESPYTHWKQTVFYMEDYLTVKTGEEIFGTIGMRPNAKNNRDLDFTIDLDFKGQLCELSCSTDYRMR
T3 sequence (Q9WVG6 whole entry): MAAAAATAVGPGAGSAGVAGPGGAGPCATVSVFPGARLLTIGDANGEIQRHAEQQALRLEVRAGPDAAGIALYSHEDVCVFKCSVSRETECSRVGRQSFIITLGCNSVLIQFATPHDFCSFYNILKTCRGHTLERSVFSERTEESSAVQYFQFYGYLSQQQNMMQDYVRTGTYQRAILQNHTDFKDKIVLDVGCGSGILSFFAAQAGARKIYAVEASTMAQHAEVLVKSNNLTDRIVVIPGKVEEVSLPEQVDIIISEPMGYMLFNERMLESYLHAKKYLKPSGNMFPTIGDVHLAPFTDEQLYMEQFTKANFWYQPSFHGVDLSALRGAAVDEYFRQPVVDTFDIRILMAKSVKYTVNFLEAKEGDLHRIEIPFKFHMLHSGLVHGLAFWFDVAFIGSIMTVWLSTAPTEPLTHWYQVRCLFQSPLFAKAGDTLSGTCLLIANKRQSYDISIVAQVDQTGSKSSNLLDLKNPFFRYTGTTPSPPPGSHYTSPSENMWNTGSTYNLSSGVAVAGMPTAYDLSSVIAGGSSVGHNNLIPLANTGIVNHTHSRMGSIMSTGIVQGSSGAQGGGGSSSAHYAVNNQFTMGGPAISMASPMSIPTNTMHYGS
T2 sequence (Q9NVM4 whole entry): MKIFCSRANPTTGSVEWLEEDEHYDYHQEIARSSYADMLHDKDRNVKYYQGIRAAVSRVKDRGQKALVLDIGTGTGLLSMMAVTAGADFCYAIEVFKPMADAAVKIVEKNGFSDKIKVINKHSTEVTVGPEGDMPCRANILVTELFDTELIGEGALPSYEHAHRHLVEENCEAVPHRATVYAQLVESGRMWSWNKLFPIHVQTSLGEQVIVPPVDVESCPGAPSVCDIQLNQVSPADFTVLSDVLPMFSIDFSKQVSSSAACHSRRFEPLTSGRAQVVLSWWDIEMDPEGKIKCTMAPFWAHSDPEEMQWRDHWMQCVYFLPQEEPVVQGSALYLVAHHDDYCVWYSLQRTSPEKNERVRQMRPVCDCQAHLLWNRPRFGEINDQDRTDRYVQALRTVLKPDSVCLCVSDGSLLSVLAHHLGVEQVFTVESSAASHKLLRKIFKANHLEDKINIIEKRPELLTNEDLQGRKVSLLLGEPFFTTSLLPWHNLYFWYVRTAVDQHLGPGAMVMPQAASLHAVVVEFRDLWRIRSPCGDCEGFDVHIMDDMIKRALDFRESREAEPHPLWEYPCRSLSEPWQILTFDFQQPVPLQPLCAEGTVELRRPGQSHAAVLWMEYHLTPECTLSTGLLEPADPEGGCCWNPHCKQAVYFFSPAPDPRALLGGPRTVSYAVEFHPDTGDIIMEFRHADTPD

The term IC50 denotes the concentration that inhibits the measured activity by half. For `CCn1c2ccccc2c2cc(CNCc3ccccc3OC)ccc21` [HLCL-61], the apoptosis entry in experiment [1] was “dose-dependent increase in apoptosis”. The IC50 in the experiment with MOLM-13 was 21.5 µM; in the experiment with OCI-AML3, 19.1 µM; in the experiment on Kasumi-1 (24 h, 24 h), 6.99 µM; in the experiment on Kasumi-1 (48 h, 48 h) it was 7.21 µM; in the experiment with Kasumi-1 (72 h, 72 h) it was 5.63 µM; in the experiment with AML cell lines (48 h post treatment, range over AML cell lines) it was 21 to 21.5 µM. The “inhibition of cell proliferation” value with AML cell lines (AML cell lines and primary patients' blasts, 1 to 100 μM) was “dose-dependent (1 to 100 μM) inhibition of cell proliferation”. Also, the “inhibition of PRMT1 enzyme” value is given as “this non-specific activity is lost” at recombinant PRMT1 (10 μM, FIG. 17B); “non-specific inhibition” on recombinant PRMT1 (20 μM and above, FIG. 17A). Further, on recombinant PRMT1 (FIG. 33A), the “effect on PRMT1 enzymatic activity” value is “ineffectiveness”. The “effect on PRMT7 enzymatic activity” value in [2] is “ineffectiveness”. The “effect on PRMT4 enzymatic activity” value on recombinant PRMT4 was “ineffectiveness”. Further, the “increase in expression of CD11b” value in experiment [3] is recorded as over 4 fold. In the experiment with miR-29b in AML cells (AML cell lines and patient blasts), the “pri-miR-29b transcript levels (pri-miR-29b-1 and pri-miR-29b-2)” value was “substantial and dose-dependent increase”. Further, the miR-29b levels entry in the experiment with miR-29b in AML cells (MV4-11 and THP-1 cells) is “significant increase in miR-29b levels”.

The record behind these values is patent publication US9856218B2, “Inhibitors of PRMT5 and methods of their use” (Ohio State Innovation Foundation, priority 2013, dated 2018).
